Measured values: patent publication US5919464A, “Treatment of aberrant cellular states with biomodulators” (University of New Mexico, priority 1993, dated 1999)

Columns and labels:
B16 melanoma cells [1] = assay: effect of swainsonine on cytotoxic T-lymphocytes (51Cr cytotoxicity assay); type: in vivo, mouse
Description: The cytotoxicity assay used two targets: YAC-1, for natural killer cell targets and B16 melanoma cells, for cytolytic T-cell targets. The YAC-1 cells were labelled in GKN (glucose/KCl/NaCl) with ^51 Cr (NEN-DuPont,400-1200 Ci/g activity) for 60 min. The B16's were ^51 Cr labelled in complete α-MEM media for 60 min. Both targets were washed twice through whole fetal calf serum to remove damaged and dead cells and then suspended in complete RPMI at a final concentration of 1×10^5 cells/ml. The spleen cells (effector cells) were plated in round bottom 96 well trays starting at 1×10^7 cells/ml (100μl/well), using a halving dilution that provided splenocyte concentrations of 10^6, 5×10^5, 2.5×10^5, 1.25×10^5, 6.25×10^4 and 3.125×10^4, all done in triplicate. The target cells were added at 1×10^4 cell/100 μl/well; this gave an effector:target cell ratio ranging from 100:1 to 3:1. Controls included spontaneous ^51 Cr release and 100% lysis (10% triton treatment). The trays were centrifuged at 50×g for 5 min. and incubated in a CO2 incubator at 37° C. for 16 hours. The trays were spun again at 50×g for 5 minutes and 100 μl removed from each well for counting. A Packard gamma counter (United Technologies) was used for counting. Each sample was counted for 1 min. giving a 5% counting efficiency. The following equation was used to determine percent lysis. [formula]
The effector:target ratios were then plotted against percent lysis and a simple line equation was determined for each treatment group. The slope of this line was then used to determine the total effector kill efficiency.
The ^51 Cr cytotoxicity assay was also run with the B16 melanoma cells as the target and the splenocytes from the same mice as above as the effector cells. The baseline mice (no tumor/no Sw) and the control mice (tumor/no Sw) had very similar line shapes and slopes. There were significant differences (p=0.03) between the presence and absence of tumor (see Table in FIG. 68).

IL-2R; LAK = conditions: in words, cited from earlier work
B16F10 cells = conditions: Sw in drinking water (3 μg/ml) for 24 hours; cited from earlier work
antibody formation = conditions: in words, cited from earlier work
splenocytes = assay: effect of swainsonine on humoral immunity (PFC assay); type: in vivo, mouse
Description: The plaque forming cell (PFC) assay was done according to the method developed by Jerne and Nordin (1963). The splenocytes were washed in serum-free RPMI-1640 and brought to a final concentration of 1×10^6 cell/100 μl. Sheep red blood cells (sRBC), from The Colorado Serum Company, were labelled with protein A from Staphylococcus aureus (Sigma). The sRBC's were washed 3 times with saline (0.85% NaCl), the packed cells were then incubated with 1 ml of protein A (0.5 mg/ml saline) and 10 ml of saline containing 0.1 μl of CrCl3 (35% solution) (Aldrich), for 20 minutes. The sRBC's were then washed 3 times with PBS and suspended in PBS to make a 30% solution. The sRBC's (50 μl) and splenocytes (100μl) were combined with SeaPlaque agarose (FMC Corporation) and smeared on a 75 mm×50 mm microscope slide to form a lawn of target red blood cells with uniformly dispersed effector cells. Each sample was done in triplicate. The agarose was allowed to harden and the slides were placed in trays containing serum-free RPMI-1640. The trays were incubated at 37° C. in a CO2 incubator for 90 min. After incubation the slides were placed in slide holders containing normal saline for a wash step. The rabbit/anti-mouse antibody (DAKO Corporation) was diluted 1:400 with serum free RPMI-1640 and added to the slide trays. Following another 90 min. incubation at 37° C. in a CO2 incubator, the slides were again washed. Fresh frozen guinea pig complement (GIBCO) (2%) in serum-free RPMI-1640 was added to the slide trays and incubated for another 60 to 90 min. depending on the time necessary for plaque formation. The number of plaques were counted and the results reported as number of plaque forming cells per 1×10^6 splenocytes.
Mice were pretreated for 3 weeks with Sw (0.1 μg and 0.01 μg), and then received B16 cells. At 3 time points post tumor cell injection (day 0, 7 and 14), the mice were sacrificed and the spleens were removed. The cells were then used to determine the effect of Sw on humoral immunity. […] The presence of a day 7 tumor caused a return to baseline for all the groups. […]

B16 melanoma cells [2] = assay: effect of swainsonine on B16 melanoma solid tumor growth; type: in vivo, C57Bl/6 mice; conditions: for inhibition of B16 growth at other doses: 1.0, 0.01 and 0.001 μg Sw
Description: The B16 melanoma cells were purchased from American Type Culture Collection (ATCC). They were maintained in complete α-MEM (SIGMA) (with 10% fetal calf serum (FCS) (Sigma), 100 U/ml penicillin (Sigma), 100 μg/ml streptomycin (Sigma) and 2 mM glutamine (Sigma)) in Corning 75 cm^2 straight necked flasks (T75) and grown with 5.5% CO2 in air with 95% humidity in a New Brunswick Scientific water jacketed incubator. […] They were harvested using 1× Trypsin-EDTA (Sigma), centrifuged at 100×g with a Beckman TJ6 centrifuge, counted using a hemocytometer and stained with trypan blue to determine viability. The cells used for injection into the mice were washed three times in phosphate buffered saline (PBS), counted and resuspended in PBS at a final concentration of 6×10^6 cells per ml.
The swainsonine, purchased from Boehringer Mannheim, was initially suspended in PBS at 100 μg/ml. Subsequent dilutions utilized in the following experiments were made in PBS.
Fifteen female C57Bl/6 mice (6 weeks old, from Harlan Sprague Dawley Laboratories) were treated 3 times per week on a Monday-Wednesday-Friday (MWF) schedule for three weeks prior to the injection of the 6×10^5 B16 melanoma cells. The treatment consisted of 0.1 ml (total volume) intraperitoneal injections of swainsonine in the mornings before 9:00 am. The treatment groups were as follows:
The MWF treatment with the swainsonine continued after the tumor cell injection until the termination of the study. Once the tumor was palpable, electronic calipers were used to measure the length (l), width (w) and depth (d) of the tumor. The volume of the tumor was then determined by V=πr^2 ×d, with the assumption that the tumor is a […], then r=(l+w)/4.

O[C@H]1[C@H]2[C@H](O)CCCN2C[C@H]1O [Swainsonine, swainsonine]
increase in line slope (kill efficiency) (B16 melanoma cells [1]; 0.1 μg Sw alone): 104% | CTL activity before exposure to specific target (B16 melanoma cells [1]; 0.1 μg Sw for 3 weeks, in words): significant increase in the CTL activity | convertability from NK to CTL (B16 melanoma cells [1]; 0.1 μg Sw with tumors, tumor control 17.5%): 39% | lymphoid IL-2R expression and IL-2 induced proliferation (IL-2R; LAK; following mitogenic stimulation): augmented lymphoid IL-2R expression and IL-2 induced proliferation | LAK induction (IL-2R; LAK; normally sub-optimal stimulation doses): augmented the LAK induction | stimulation of CTL (B16F10 cells): no stimulation of CTL | antibody production after immunosuppressive factor (antibody formation; Sw 3.7-100 mg/kg i.p. 5 days): return to normal levels of antibody production | PFC numbers, Sw alone (antibody formation): no changes in PFC numbers | increase in plaque forming cells (PFC) (splenocytes; 0.01 μg Sw 3 weeks over mice not receiving Sw, p=0.001): 89% | PFC versus control group (splenocytes; 0.1 μg Sw without tumor, in words): not as significantly different from the control group (p=0.04) | PFC versus controls (splenocytes; 0.1 μg Sw, day 14, in words): not a significant difference between the controls and these treated mice (p=0.13) | delay of tumor growth onset (B16 melanoma cells [2]; 0.1 μg Sw): two | reduction of tumor size compared to controls (B16 melanoma cells [2]; 0.1 μg Sw, day 9, p=0.03): 74% | reduction of tumor size compared to controls (B16 melanoma cells [2]; 0.1 μg Sw, day 11, p=0.003): 68% | day of palpable tumors (B16 melanoma cells [2]; 0.1 μg Sw, control day 5): 7 days | day of measurable tumors (B16 melanoma cells [2]; 0.1 μg Sw, control day 7): 9 days | tumor growth at 1.0 μg (B16 melanoma cells [2]; 1.0 μg Sw, in words): enhanced growth | inhibition of B16 growth at other doses (B16 melanoma cells [2]; in words): no effect on delaying growth | inhibition of B16 growth at other doses (B16 melanoma cells [2]; in words, listed as Sw): less effective at inhibiting the B16 growth (p<0.5)
